One test has as its system SP specific CD8+ T cells. The experiment in a line: Tetramer enrichment of SP-specific CD8+ T cells from spleen and LN after immunization. The class given is in vivo, C57BL/6J mice. The settings on record: 10D PI.
Another test relates to EAE6-CD8 TCR. It counts as binding, mouse. The settings on record: Jurkat αβ−/− cells, H2-Db tetramer.
Another test has as its system EAE7-CD8 TCR. The class given is binding, mouse. The conditions noted are these: Jurkat αβ−/− cells, H2-Db tetramer.
Test [1] has as its system experimental autoimmune encephalomyelitis (EAE). Put plainly: Induction and evaluation of EAE (clinical scores). The class given is in vivo, C57BL/6J mice.
The test system of test [2] is MOG35-55 specific CD4+ T cells. Put plainly: Tetramer enrichment of MOG35-55 I-Ab specific CD4+ T cells from spleen and LN after immunization. The conditions noted are these: D10 after immunization. The class given is in vivo, C57BL/6J mice.
For test [3], the system named is MOG35-55 specific CD4+ T cells. The experiment in a line: In vitro proliferation/suppression assay (CTV dilution). It counts as cell-based, mouse. The conditions noted are these: CD4+ T cells from MOG immunized mice stimulated with MOG35-55.
Description: In vitro proliferation/suppression assay. Spleen and LN cells were harvested from WT or immunized mice. Single cell suspensions were prepared, and RBCs were lysed using Ack lysis buffer (ThermoFisher scientific A1049201). […] Post CD4+ T cell enrichment, cells were counted and labelled with CellTrace™ Violet Dye (ThermoFisher scientific C34557) according to manufacturer instructions.
In vitro proliferation/suppression assays were set up according to previously published protocol. Briefly, labelled CD4+ T cells were co-cultured either with CD8+ T cells (1:1 ratio, 0.25×10^6 cells/well) or without CD8+ T cells in the presence of pan DC's (0.75×10^6 cells/well). In some of the suppression experiments cells were pre-included with 10 μg/ml of anti-Qa-1b neutralizing antibody (6A8.6F10.1A16, BD Biosciences). Cells were cultured in a total volume of 200 μl in a 96-well round bottom plate. The CD4+ T cells were stimulated with either MOG35-55 or not. On day 7, the cells were washed and stained with surface antibodies and analyzed on LSR II (Becton Dickinson).
Test [4] concerns ovalbumin specific TCR (OT-1) expressed in 58 αβ−/− cells. The experiment in a line: T cell stimulation assay (CD69) with peptide- or protein-pulsed BMDCs. The class given is cell-based, mouse. The conditions noted are these: co-culture with loaded BMDCs. The protocol:
T cell stimulation assays. T cell stimulation assays were performed as previously described. All the T cell peptide stimulation experiments were done in 96 well round bottom plates with a 200 μl total volume. T2, K562 cells or BMDCs were pulsed with 10-100 μg of the peptides for 45 minutes, washed once and plated (10,000 cells/well). Cell lines expressing TCRs (100,000 cells/well) were co-cultured with APCs for 18 hr. At the end of stimulation, cells were harvested, washed, and stained with TCRβ, human CD3, and CD69 and analyzed on LSR II (Becton Dickinson) for activation.

Another test relates to 6218 TCR. It counts as binding, mouse. The settings on record: Jurkat αβ−/− cells, H2-Db tetramer.
The target of test [5] is T1, myelin oligodendrocyte glycoprotein (MOG); the tetramer is called MOG35-55 I-Ab in the results peptide on … (mouse).
T1 peptide: GWYRSPFSRVV
The experiment in a line: multimer staining.

The target of test [6] is T2, surrogate peptide (SP) from the yeast H2-Db library; no match in the mouse genome peptide on H2-Db (mouse).
T2 peptide: HDRVNWEYI
Put plainly: multimer staining.

In test [7] the target is T3, surrogate peptide (SP) from the yeast H2-Db library; no match in the mouse genome peptide on H2-Db (mouse).
T3 peptide: YQPGNWEYI
Put plainly: multimer staining.

Test [8] addresses T4, yeast H2-Db library peptide enriched by the EAE7-CD8 TCR peptide on H2-Db (mouse).
T4 peptide: RDVHNPDVI
Put plainly: binding, other.

For test [9], the target named is T5, yeast H2-Db library peptide enriched by the EAE7-CD8 TCR peptide on H2-Db (mouse).
T5 peptide: WSLRNLVML
The experiment in a line: binding, other.

Test [10] deals with T6, yeast H2-Db library peptide enriched by the EAE7-CD8 TCR peptide on H2-Db (mouse).
T6 peptide: QRHENLHRM
The experiment in a line: binding, other.

Test [11] has as its target T7, yeast H2-Db library peptide enriched by the EAE7-CD8 TCR peptide on H2-Db (mouse).
T7 peptide: TCAYNPRGM
Put plainly: binding, other.

Test [12] addresses T8, yeast H2-Db library peptide enriched by the EAE7-CD8 TCR peptide on H2-Db (mouse).
T8 peptide: TRLVNDVDL
Put plainly: binding, other.

Test [13] has as its target T9, yeast H2-Db library peptide enriched by the EAE7-CD8 TCR peptide on H2-Db (mouse).
T9 peptide: RRILNLGGM
Put plainly: binding, other.

The target of test [14] is T10, surrogate peptide (SP) from the yeast H2-Db library; no match in the mouse genome peptide on H2-Db (mouse).
T10 peptide: SMRPNHFFFL
The experiment in a line: multimer staining.

The target in test [15] is T11, surrogate peptide (SP) from the yeast H2-Db library; no match in the mouse genome peptide on H2-Db (mouse).
T11 peptide: ASRSNRYFWL
The experiment in a line: multimer staining.

In test [16] the target is T12, yeast H2-Db library peptide enriched by the EAE6-CD8 TCR peptide on H2-Db (mouse).
T12 peptide: ASIANWPLAI
The experiment in a line: binding, other.

Test [17] concerns the target T13, yeast H2-Db library peptide enriched by the EAE6-CD8 TCR peptide on H2-Db (mouse).
T13 peptide: FQRGNRLMWL
Put plainly: binding, other.

Test [18] has as its target T14, yeast H2-Db library peptide enriched by the EAE6-CD8 TCR peptide on H2-Db (mouse).
T14 peptide: GTEFNHWAAI
Put plainly: binding, other.

The target in test [19] is T15, yeast H2-Db library peptide enriched by the EAE6-CD8 TCR peptide on H2-Db (mouse).
T15 peptide: NHRNNRYFFL
Put plainly: binding, other.

The target in test [20] is T16, yeast H2-Db library peptide enriched by the EAE6-CD8 TCR peptide on H2-Db (mouse).
T16 peptide: NHRTNRYFFL
The experiment in a line: binding, other.

[21] abbreviates: MOG+SP immunization, spleen and LN.
[22] abbreviates: SP immunization in comparison to WT mice.
Where [23] appears, read: Table 6, MOG35-55 with or without SP, mean ± SEM.
[24] abbreviates: Table 6, immunization with MOG35-55, CFA and PTX with or without SP, n=10.
Where [25] appears, read: Table 7, MOG, SP challenge, MOG challenge (challenge seven days after first immunization), n=10.
Setting [26] is: Table 7, challenge seven days after first immunization, affected if clinical scores ≥1 for ≥2 consecutive days.
Setting [27] is: Table 7, challenge seven days after first immunization, mean ± SEM.

For “ASRSNRYFWL [surrogate peptide for EAE6-CD8 TCR from H2-Db yeast library]”, the “frequency of CD8+ T cells specific for the peptide” value (shortened to “frequency of CD8+ T cells specific”) in the test with SP specific CD8+ T cells (setting [21]) is on record as “increased”; in the test on SP specific CD8+ T cells (setting [22]), “no change”. Moreover, the “pMHC tetramer staining of EAE6-CD8 TCR cells” value in the test on EAE6-CD8 TCR was “robust staining”.

“HDRVNWEYI [36th enriched peptide for EAE7-CD8 TCR]”: the entries for the “frequency of CD8+ T cells specific” value in the test with SP specific CD8+ T cells (setting [21]) and with SP specific CD8+ T cells (setting [22]) were “increased” and “higher frequency”, respectively. Further, in the test on EAE7-CD8 TCR, the “pMHC tetramer staining of EAE7-CD8 TCR cells” value is recorded as “robust tetramer staining”.

As for “MOG35-55: EAE-inducing myelin oligodendrocyte glycoprotein peptide 35-55 (MEVGWYRSPFSRVVHLYRNGK; UniProt Q61885 63-83, looked up, fragment)”, in [1] (MOG immunization with or without SP), the “incidence of EAE disease (of the mice)” value came out at 100%. Besides, in test [1] (setting [23]), the “CDS, cumulative disease score” value worked out at 46.3 ± 5.9; the “DA, days affected” value is reported as 16.3 ± 0.7; the “DO, day of onset in affected animals” value is on record as 13.8 ± 0.2; the “PS, peak score” value amounted to 3.2 ± 0.4. In addition, the “SI, severity index (cumulative disease score/days affected)” value in [1] (setting [23]) turned out to be 3 ± 0.4. Also, in test [1] (setting [24]), the “Incidence (affected/total)” value was 10/10 and the “Incidence, percentage affected” value is 100%. In addition, the “Incidence (affected/total)” value in test [1] (setting [25]) is given as 10/10. Further, in [1] (setting [26]), the “Incidence, percentage affected” value is 100%. In test [1] (setting [27]), the “CDS, cumulative disease score over 30 days of experiment” value is 55.8 ± 3.9; the “DA, days affected” value was 17 ± 0.3; the “DO, day of onset in affected animals” value was 13.3 ± 0.3; the “PS, peak score” value is given as 4 ± 0.1. Also, in test [1] (setting [27]), the “SI, severity index (cumulative disease score/days affected)” value amounted to 3.14 ± 0.2. For the same molecule, the “SP specific CD8+ T cells detected” value with SP specific CD8+ T cells (MOG35-55 immunized mice) is “very few”. Besides, in [2], the “frequency/number of MOG35-55 I-Ab tetramer+ CD4+ T cells” value is given as “elicited”. In test [2] (listed as MOG), the “frequency/number of MOG35-55 I-Ab tetramer+ CD4+ T cells” value is “increase”. For the same molecule, in [3], the “CD4+ T cell proliferation in the absence of CD8+ T cells” value is given as “proliferated robustly”.

With “MOG challenge: mice immunized with SP, then challenged with MOG35-55 seven days after immunization (MEVGWYRSPFSRVVHLYRNGK; UniProt Q61885 63-83, looked up, fragment)”, the “Incidence (affected/total)” value in [1] (setting [25]) was 6/10. Also, the “Incidence, percentage affected” value in [1] (setting [26]) was found to be 60%. In [1] (setting [27]), the “CDS, cumulative disease score over 30 days of experiment” value is 43.3 ± 5.3; the “DA, days affected” value came out at 8.2 ± 2.5; the “DO, day of onset in affected animals” value stood at 10 ± 2.8; the “PS, peak score” value is reported as 1.5 ± 0.4. In addition, in [1] (setting [27]), the “SI, severity index (cumulative disease score/days affected)” value was 1.29 ± 0.3.

Consider SIINFEKL [ovalbumin derived peptide], for which the “activation (CD69) of OT-1 TCR cells” value in [4] is reported as “robust activation”.

As for “SMRPNHFFFL [surrogate peptide for EAE6-CD8 TCR from H2-Db yeast library]”, the entries for the “frequency of CD8+ T cells specific” value in the test on SP specific CD8+ T cells (setting [21]) and in the test on SP specific CD8+ T cells (setting [22]) were “increased” and “higher frequency”, respectively. Moreover, the “pMHC tetramer staining of EAE6-CD8 TCR cells” value in the test on EAE6-CD8 TCR was “robust staining”.

Take “SSLENFRAYV [H2-Db-restricted acid polymerase peptide 224-233, ligand of 6218 TCR]”: in the test on 6218 TCR, the “pMHC tetramer staining of 6218 TCR cells” value is reported as “robust staining”.

Regarding “YQPGNWEYI [top enriched surrogate peptide for EAE7-CD8 TCR]”, in the test on SP specific CD8+ T cells (setting [22]), the “frequency of CD8+ T cells specific” value is “no change”. In the test on EAE7-CD8 TCR, the “pMHC tetramer staining of EAE7-CD8 TCR cells” value is given as “robust staining”.

B1: EAE3-CD4 (TCR)
alpha mTRAV14D-1 mTRAJ43 CDR3: CAASGANNNNAPRF
beta mTRBV3 mTRBJ2-5 CDR3: CASSLEGHQDTQYF
As for B1, the binding result in test [5] was “recognises”.

B2: EAE7-CD8 (TCR)
alpha mTRAV5D-4 mTRAJ45 CDR3: CAASVNTEGADRLTF
beta mTRBV15 mTRBJ1-1 CDR3: CASTNRGEVFF
As to B2, the binding result in [6], in test [7], in test [8], in [9], in test [10] and in test [11] was “recognises” throughout. Besides, the binding result in test [12] and in test [13] was “recognises” each time.

B3: EAE2-CD4 (TCR)
alpha mTRAV12-1 mTRAJ23 CDR3: CALRNYNQGKLIF
beta mTRBV16 mTRBJ1-4 CDR3: CASSLDQGWDERLFF
B3: the binding result in test [5] is “recognises”.

B4: ovalbumin protein: whole OVA protein (protein, UniProt P01012 2-386, looked up)
Ovalbumin: GSIGAASMEFCFDVFKELKVHHANENIFYCPIAIMSALAMVYLGAKDSTRTQINKVVRFDKLPGFGDSIEAQCGTSVNVHSSLRDILNQITKPNDVYSFSLASRLYAEERYPILPEYLQCVKELYRGGLEPINFQTAADQARELINSWVESQTNGIIRNVLQPSSVDSQTAMVLVNAIVFKGLWEKAFKDEDTQAMPFRVTEQESKPVQMMYQIGLFRVASMASEKMKILELPFASGTMSMLVLLPDEVSGLEQLESIINFEKLTEWTSSNVMEERKIKVYLPRMKMEEKYNLTSVLMAMGITDVFSSSANLSGISSAESLKISQAVHAAHAEINEAGREVVGSAEAGVDAASVSEEFRADHPFLFCIKHIATNAVLFFGRCVSP
On to B4, for which, in test [4], the “activation (CD69) of OT-1 TCR cells” value was “robustly stimulated”.

B5: EAE6-CD8 (TCR)
alpha mTRAV12-1 mTRAJ31 CDR3: CALSDYNRIFF
beta mTRBV19 mTRBJ2-3 CDR3: CASSITPLGGLETLYF
B5: the binding result in [14], in [15], in test [16], in test [17], in [18] and in [19] was “recognises” each time. The binding result in test [20] was “recognises”.
